In patent US20230365592A1 (Agios Pharmaceuticals, Inc., priority 2022, published 2023):

Biological target: T1, human PAH with the R408W mutation (Homo sapiens, UniProt P00439, R408W)
T1 construct: expressed in transfected cells
T1 sequence (P00439 1-452 R408W): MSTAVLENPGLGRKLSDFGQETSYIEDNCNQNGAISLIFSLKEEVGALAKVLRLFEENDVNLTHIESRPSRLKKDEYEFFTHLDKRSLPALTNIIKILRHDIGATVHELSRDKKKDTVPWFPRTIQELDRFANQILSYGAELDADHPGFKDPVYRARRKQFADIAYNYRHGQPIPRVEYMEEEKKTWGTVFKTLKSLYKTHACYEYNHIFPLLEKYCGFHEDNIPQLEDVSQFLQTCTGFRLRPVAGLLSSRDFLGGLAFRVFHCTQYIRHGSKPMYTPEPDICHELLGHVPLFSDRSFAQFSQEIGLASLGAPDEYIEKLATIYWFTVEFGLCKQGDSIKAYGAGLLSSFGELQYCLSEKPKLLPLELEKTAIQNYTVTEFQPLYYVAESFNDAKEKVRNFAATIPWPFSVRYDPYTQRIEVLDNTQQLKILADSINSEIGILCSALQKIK
Experiment: Cell Based Phenylalanine Flux Assay;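 further: after compound treatment, cells received sepiapterin plus isotope-labelled Phenylalanine for 4 hours, then labelled Tyrosine in the medium was quantified, 10-point 2-fold dilution series run in duplicate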
Settings: A375 cells expressing human R408W PAH; 24 hrs compound incubation; 13C-Tyrosine by LC-MS; average where tested multiple times; read-out: AC50

| SMILES | AC50 [nM] |
| --- | --- |
| O=C(c1cnco1)N1CCc2[nH]cnc2[C@H]1c1cc2c(Cl)cccn2n1 [Example 766, (S)-(4-(4-chloropyrazolo[1,5-a]pyridin-2-yl)-6,7-dihydro-1H-imidazo[4,5-c]pyridin-5(4H)-yl)(oxazol-5-yl)methanone] | < 500 |
| O=C(c1cnco1)N1CCc2[nH]cnc2[C@@H]1c1cc2c(Cl)cccn2n1 [Example 767, (R)-(4-(4-chloropyrazolo[1,5-a]pyridin-2-yl)-6,7-dihydro-1H-imidazo[4,5-c]pyridin-5(4H)-yl)(oxazol-5-yl)methanone] | > 5000 |
| Cc1cccn2nc([C@@H]3c4nc[nH]c4CCN3C(=O)c3cnco3)cc12 [Example 768, (S)-(4-(4-methylpyrazolo[1,5-a]pyridin-2-yl)-6,7-dihydro-1H-imidazo[4,5-c]pyridin-5(4H)-yl)(oxazol-5-yl)methanone] | < 500 |
| Cc1ncoc1C(=O)N1CCc2[nH]cnc2[C@H]1c1cc2c(C)cccn2n1 [Example 770, (S)-(4-methyloxazol-5-yl)(4-(4-methylpyrazolo[1,5-a]pyridin-2-yl)-6,7-dihydro-1H-imidazo[4,5-c]pyridin-5(4H)-yl)methanone] | < 500 |
| Cc1ncoc1C(=O)N1CCc2[nH]cnc2[C@@H]1c1cc2c(C)cccn2n1 [Example 771, (R)-(4-methyloxazol-5-yl)(4-(4-methylpyrazolo[1,5-a]pyridin-2-yl)-6,7-dihydro-1H-imidazo[4,5-c]pyridin-5(4H)-yl)methanone] | 1000 to 5000 |
| O=C(c1ocnc1C(F)(F)F)N1CCc2[nH]cnc2[C@H]1c1cc2c(F)cccn2n1 [Example 772, (S)-(4-(4-fluoropyrazolo[1,5-a]pyridin-2-yl)-6,7-dihydro-1H-imidazo[4,5-c]pyridin-5(4H)-yl)(4-(trifluoromethyl)oxazol-5-yl)methanone] | < 500 |
| O=C(c1ocnc1C(F)(F)F)N1CCc2[nH]cnc2[C@@H]1c1cc2c(F)cccn2n1 [Example 773, (R)-(4-(4-fluoropyrazolo[1,5-a]pyridin-2-yl)-6,7-dihydro-1H-imidazo[4,5-c]pyridin-5(4H)-yl)(4-(trifluoromethyl)oxazol-5-yl)methanone] | 500 to 1000 |
| Cc1ncoc1C(=O)N1CCc2[nH]cnc2[C@H]1c1cc2c(F)cccn2n1 [Example 774, (S)-(4-(4-fluoropyrazolo[1,5-a]pyridin-2-yl)-6,7-dihydro-1H-imidazo[4,5-c]pyridin-5(4H)-yl)(4-methyloxazol-5-yl)methanone] | < 500 |
| Cc1ncoc1C(=O)N1CCc2[nH]cnc2[C@@H]1c1cc2c(F)cccn2n1 [Example 775, (R)-(4-(4-fluoropyrazolo[1,5-a]pyridin-2-yl)-6,7-dihydro-1H-imidazo[4,5-c]pyridin-5(4H)-yl)(4-methyloxazol-5-yl)methanone] | > 5000 |
| O=C(c1ccnn1C(F)F)N1CCc2[nH]cnc2[C@H]1c1cc2c(F)cccn2n1 [Example 776, (S)-(1-(difluoromethyl)-1H-pyrazol-5-yl)(4-(4-fluoropyrazolo[1,5-a]pyridin-2-yl)-6,7-dihydro-1H-imidazo[4,5-c]pyridin-5(4H)-yl)methanone] | < 500 |
| O=C(c1ccnn1C(F)F)N1CCc2[nH]cnc2[C@@H]1c1cc2c(F)cccn2n1 [Example 777, (R)-(1-(difluoromethyl)-1H-pyrazol-5-yl)(4-(4-fluoropyrazolo[1,5-a]pyridin-2-yl)-6,7-dihydro-1H-imidazo[4,5-c]pyridin-5(4H)-yl)methanone] | > 5000 |
| COc1cccn2nc([C@@H]3c4nc[nH]c4CCN3C(=O)c3nnc(-c4ccccn4)o3)cc12 [Example 779, (S)-(4-(4-methoxypyrazolo[1,5-a]pyridin-2-yl)-6,7-dihydro-1H-imidazo[4,5-c]pyridin-5(4H)-yl)(5-(pyridin-2-yl)-1,3,4-oxadiazol-2-yl)methanone] | 500 to 1000 |
| Cn1nc(C(F)F)nc1C(=O)N1CCc2[nH]cnc2[C@H]1c1cc2c(Cl)cccn2n1 [Example 780, (S)-(4-(4-chloropyrazolo[1,5-a]pyridin-2-yl)-6,7-dihydro-1H-imidazo[4,5-c]pyridin-5(4H)-yl)(3-(difluoromethyl)-1-methyl-1H-1,2,4-triazol-5-yl)methanone] | < 500 |
| O=C(c1ccnn1C(F)F)N1CCc2[nH]cnc2[C@H]1c1cc2c(Cl)cccn2n1 [Example 782, (S)-(4-(4-chloropyrazolo[1,5-a]pyridin-2-yl)-6,7-dihydro-1H-imidazo[4,5-c]pyridin-5(4H)-yl)(1-(difluoromethyl)-1H-pyrazol-5-yl)methanone] | < 500 |
| Cc1c([C@@H]2c3nc[nH]c3CCN2C(=O)c2ocnc2C(F)F)nn2ccccc12 [Example 784, (S)-(4-(difluoromethyl)oxazol-5-yl)(4-(3-methylpyrazolo[1,5-a]pyridin-2-yl)-6,7-dihydro-1H-imidazo[4,5-c]pyridin-5(4H)-yl)methanone] | < 500 |
| Cc1c([C@H]2c3nc[nH]c3CCN2C(=O)c2ocnc2C(F)F)nn2ccccc12 [Example 785, (R)-(4-(difluoromethyl)oxazol-5-yl)(4-(3-methylpyrazolo[1,5-a]pyridin-2-yl)-6,7-dihydro-1H-imidazo[4,5-c]pyridin-5(4H)-yl)methanone] | 1000 to 5000 |
| Cc1c([C@@H]2c3nc[nH]c3CCN2C(=O)c2oc(C(C)(C)O)nc2C(F)F)nn2ccccc12 [Example 786, (S)-(4-(difluoromethyl)-2-(2-hydroxypropan-2-yl)oxazol-5-yl)(4-(3-methylpyrazolo[1,5-a]pyridin-2-yl)-6,7-dihydro-1H-imidazo[4,5-c]pyridin-5(4H)-yl)methanone] | < 500 |
| COc1ccc(-c2nnc(C(=O)N3CCc4[nH]cnc4[C@@H]3c3cc4c(F)cccn4n3)o2)nc1 [Example 789, (R)-(4-(4-fluoropyrazolo[1,5-a]pyridin-2-yl)-6,7-dihydro-1H-imidazo[4,5-c]pyridin-5(4H)-yl)(5-(5-methoxypyridin-2-yl)-1,3,4-oxadiazol-2-yl)methanone] | 1000 to 5000 |
| O=C(c1nnc(-c2ncccc2F)o1)N1CCc2[nH]cnc2[C@@H]1c1cc2c(F)cccn2n1 [Example 790, (R)-(4-(4-fluoropyrazolo[1,5-a]pyridin-2-yl)-6,7-dihydro-1H-imidazo[4,5-c]pyridin-5(4H)-yl)(5-(3-fluoropyridin-2-yl)-1,3,4-oxadiazol-2-yl)methanone] | > 5000 |
| Cc1cccc2cc([C@@H]3c4nc[nH]c4CCN3C(=O)c3ocnc3C(F)F)nn12 [Example 792, (S)-(4-(difluoromethyl)oxazol-5-yl)(4-(7-methylpyrazolo[1,5-a]pyridin-2-yl)-6,7-dihydro-1H-imidazo[4,5-c]pyridin-5(4H)-yl)methanone] | < 500 |
| Cc1cccc2cc([C@H]3c4nc[nH]c4CCN3C(=O)c3ocnc3C(F)F)nn12 [Example 793, (R)-(4-(difluoromethyl)oxazol-5-yl)(4-(7-methylpyrazolo[1,5-a]pyridin-2-yl)-6,7-dihydro-1H-imidazo[4,5-c]pyridin-5(4H)-yl)methanone] | 500 to 1000 |
| Cc1cccc2cc([C@@H]3c4nc[nH]c4CCN3C(=O)c3oc(C(C)(C)O)nc3C(F)F)nn12 [Example 794, (S)-(4-(difluoromethyl)-2-(2-hydroxypropan-2-yl)oxazol-5-yl)(4-(7-methylpyrazolo[1,5-a]pyridin-2-yl)-6,7-dihydro-1H-imidazo[4,5-c]pyridin-5(4H)-yl)methanone] | < 500 |
| Cc1cccc2cc([C@H]3c4nc[nH]c4CCN3C(=O)c3oc(C(C)(C)O)nc3C(F)F)nn12 [Example 795, (R)-(4-(difluoromethyl)-2-(2-hydroxypropan-2-yl)oxazol-5-yl)(4-(7-methylpyrazolo[1,5-a]pyridin-2-yl)-6,7-dihydro-1H-imidazo[4,5-c]pyridin-5(4H)-yl)methanone] | 1000 to 5000 |
| O=C(c1nnc(-c2cnn(C(F)F)c2)o1)N1CCc2[nH]cnc2[C@H]1c1cc2c(F)cccn2n1 [Example 796, (S)-(5-(1-(difluoromethyl)-1H-pyrazol-4-yl)-1,3,4-oxadiazol-2-yl)(4-(4-fluoropyrazolo[1,5-a]pyridin-2-yl)-6,7-dihydro-1H-imidazo[4,5-c]pyridin-5(4H)-yl)methanone] | < 500 |
| Cc1cccc2cc([C@@H]3c4nc[nH]c4CCN3C(=O)c3nnc(-c4ccccn4)o3)nn12 [Example 798, (S)-(4-(7-methylpyrazolo[1,5-a]pyridin-2-yl)-6,7-dihydro-1H-imidazo[4,5-c]pyridin-5(4H)-yl)(5-(pyridin-2-yl)-1,3,4-oxadiazol-2-yl)methanone] | < 500 |
| Cc1cccc2cc([C@H]3c4nc[nH]c4CCN3C(=O)c3nnc(-c4cnn(C)c4)o3)nn12 [Example 801, (R)-(5-(1-methyl-1H-pyrazol-4-yl)-1,3,4-oxadiazol-2-yl)(4-(7-methylpyrazolo[1,5-a]pyridin-2-yl)-6,7-dihydro-1H-imidazo[4,5-c]pyridin-5(4H)-yl)methanone] | > 5000 |
| Cc1cccc2cc([C@H]3c4nc[nH]c4CCN3C(=O)c3nnc(-c4ccn(C)n4)o3)nn12 [Example 803, (R)-(5-(1-methyl-1H-pyrazol-3-yl)-1,3,4-oxadiazol-2-yl)(4-(7-methylpyrazolo[1,5-a]pyridin-2-yl)-6,7-dihydro-1H-imidazo[4,5-c]pyridin-5(4H)-yl)methanone] | > 5000 |
| Cc1ccc2cc([C@H]3c4nc[nH]c4CCN3C(=O)c3oc(C(C)(C)O)nc3C(F)F)nn2c1 [Example 805] | 1000 to 5000 |
